Activity calls are given as the source filed them.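 How the source made its calls: active means compounds giving half or more protection of infected cells from virus-caused growth loss, again on retest; inactive means the rest.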 Where a SMILES comes first, the peptide text is derived from it. The star is where a group is joined. Cbz = O=C(OCc1ccccc1)*
Test system: CEM cells HIV-1 protection, formazan growth assay
Assay: NCI AIDS Antiviral Assay
Conditions: for IC50: measured here: growth of uninfected CEM cells
How it was run: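 Five concentrations of each compound were applied to infected and uninfected human CEM cells. Protection from HIV-1 was judged from growth measured with a soluble formazan assay.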

O=C(COc1ccc(OCC(=O)N2C(=O)CN(c3ccc(Cl)cc3)C2=S)cc1)N1C(=O)CN(c2ccc(Cl)cc2)C1=S
EC50: > 200 µM
IC50: 43.7 µM

COC(=O)C(C)NC(=O)c1ccccc1SC(=O)CCCC[n+]1ccccc1 (configuration not stated)
EC50: > 200 µM
IC50: 2.4 µM

[O-]c1csc2n(-c3ccccc3)c3ccccc3[n+]12
EC50: > 200 µM
IC50: > 200 µM

c1ccc(OCCSCCCCCCCCCCSCCOc2ccccc2)cc1
EC50: > 8.51 µM
IC50: > 8.51 µM

CC1=CC2=C(OCO1)C(=O)c1ccccc1C2=O
outcome: inactive

C=C(C)C(O)C(O)c1c(OC)ccc2ccc(=O)oc12 (configuration not stated)
EC50: > 174 µM
IC50: > 174 µM

Cc1cc(=O)oc2c(C3=NN(C=O)C(c4ccccc4)C3)c(O)ccc12 (configuration not stated)
outcome: inactive

Oc1cccc2c(Br)ccnc12
EC50: > 20 µM
IC50: 5.13 µM

C/C(CCc1ccccc1)=N\Nc1ccc([N+](=O)[O-])cc1[N+](=O)[O-]
EC50: > 21.9 µM
IC50: > 21.9 µM

O=C1c2ccccc2C=c2c1nc1c(O)ccc3cccc2c31
EC50: > 100 µM
IC50: 15.5 µM

COc1cc(N=Nc2cc(S(=O)(=O)O)c3cccnc3c2O)ccc1-c1ccc(N=Nc2cc(S(=O)(=O)O)c3cccnc3c2O)cc1OC
EC50: 100 µM
IC50: 182 µM

S=C1Cc2[nH]c(=S)sc(=S)c2C(=S)N1
EC50: > 64.6 µM
IC50: 57.5 µM

Cc1ccc(NC(=S)NNC(=O)c2cc(-c3ccccc3)nc3ccccc23)cc1
EC50: > 200 µM
IC50: 12.9 µM

CCc1cccc(C(C)(C)C)c1NC(=S)N/C=C(/C#N)C(N)=O
EC50: > 200 µM
IC50: 151 µM

COC(=O)C1(C(=O)OC)CC2=C(S(=O)(=O)c3ccccc3)C[C@@H](C#N)[C@H]2C1
EC50: > 200 µM
IC50: 110 µM

CCOC(=O)C(C)Sc1nnc(COc2ccccc2OC)n1-c1ccccc1 (configuration not stated)
EC50: > 200 µM
IC50: 162 µM

O=C(Nc1nc2ccccc2[nH]1)C(=O)NC12CC3CC(CC(C3)C1)C2
outcome: inactive

C[C@H](CCC(=O)O)[C@H]1CC[C@H]2[C@@H]3[C@@H](O)C[C@@H]4C[C@H](O)CC[C@]4(C)[C@H]3C[C@H](O)[C@]12C
EC50: > 200 µM
IC50: > 200 µM

CCCCN(CCCC)C(=NCc1ccccc1)NC#N
EC50: > 100 µM
IC50: 17.4 µM

COc1ccc(-c2nc(-c3cnccn3)n(C3OC(CO)C(O)C(O)C3O)n2)cc1 (configuration not stated)
EC50: > 200 µM
IC50: > 200 µM

COC(=O)C1C(NCc2ccccc2)=CC(C)(C)C(C(=O)OC)C1c1ccccc1 (configuration not stated)
EC50: > 200 µM
IC50: 166 µM

CCC(CCCCC1CC[C@H]2CC(=O)C[C@@H]12)OC (some centres not stated)
EC50: > 200 µM
IC50: 107 µM

CCCCCCCCCCC(c1cc(Cl)c(OC)c(C(=O)OC)c1)c1cc(Cl)c(OC)c(C(=O)OC)c1
EC50: > 38.9 µM
IC50: > 38.9 µM

CC1(C)O[C@@H](CO)[C@H]([C@@]23OC[C@H]4OC(C)(C)OC4[C@@H]2OC(C)(C)O3)O1 (some centres not stated)
EC50: > 200 µM
IC50: > 200 µM

O=C(Cc1ccccc1)N=Nc1c(O)[nH]c2ccccc12
EC50: > 200 µM
IC50: > 200 µM

Cc1cnc2c(c1)C(=O)N(c1ccc(Oc3ccccc3)cc1)S2(=O)=O
EC50: > 200 µM
IC50: > 200 µM

COc1cc2c(cc1O)C(=O)OC1CC=C3CC[N@@+](C)([O-])[C@H]3C21 (some centres not stated)
EC50: > 195 µM
IC50: > 195 µM

C/C(=N\N=C(N)N)C(CN1CCCCC1)C(c1ccccc1)c1c(O)c2ccccc2oc1=O (configuration not stated)
EC50: > 52.5 µM
IC50: > 52.5 µM

Cn1c2ccc(Cl)cc2c2ccc3c(c21)C(=O)C=CC3=O
EC50: > 100 µM
IC50: 12.9 µM

CCOC(=O)CCC(NC(=O)OCc1ccccc1)C(=O)NC(CCC(=O)OCC)C(=O)OCC (configuration not stated) (Cbz-Glu(OEt)-Glu(OEt)-OEt; configuration not given here)
EC50: > 200 µM
IC50: > 200 µM

N=C1N=Nc2nc(C(C(=O)c3cccc4ccccc34)c3nc4n(c3O)C(=N)N=N4)c(O)n21 (configuration not stated)
EC50: > 200 µM
IC50: 117 µM

COc1ccc(CN=C(N)N)c2ccccc12
EC50: > 200 µM
IC50: 5.13 µM

CNC(=O)c1ccccc1[Se][Se]c1ccccc1C(=O)NC
EC50: 3.55 µM
IC50: 11 µM

CC1=N/C(=C\c2cccc([N+](=O)[O-])c2)C(=O)O1
EC50: > 562 µM
IC50: > 562 µM

C=CC1(O)CCCC=C1COCc1ccccc1 (configuration not stated)
EC50: > 200 µM
IC50: 33.1 µM

O=C(Nc1ccccc1)c1ccccc1[Se][Se]c1ccccc1C(=O)Nc1ccccc1
EC50: 5.37 µM
IC50: 9.55 µM

COc1cc(N(CCC#N)CCC#N)ccc1/C(N=Nc1ccc(C(=O)O)cc1)=N/NC(=O)c1cc(Br)ccc1O
EC50: > 200 µM
IC50: 26.3 µM

O=C1/C(=C/c2ccc(Cl)cc2)CCC/C1=C\c1ccc(O)c(CN2CCCCC2)c1
EC50: > 100 µM
IC50: 5.25 µM

N#Cc1c2n(c(=S)n(-c3ccccc3)c1=N)CCCCCCC2
EC50: > 200 µM
IC50: 10.7 µM

O=S(=O)(c1ccc(NC2=NC(c3ccc(O)cc3)(c3ccccc3O)c3ccccc32)cc1)c1ccc(NC2=NC(c3ccc(O)cc3)(c3ccccc3O)c3ccccc32)cc1 (configuration not stated)
EC50: > 200 µM
IC50: 3.47 µM
